Test results published in PubChem BioAssay (NCI).
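Exposure lasted 48 hours, with cells grown in 96-well plates and compounds tested at five concentrations. The concentration for full growth arrest is given as TGI.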

Key:
Assay in all cases: DTP human tumour cell line panel, 48 h
[1] = system: OVCAR-4 ovarian
[2] = system: UACC-257 melanoma
[3] = system: UACC-62 melanoma
[4] = system: SF-295 CNS
[5] = system: SK-MEL-5 melanoma
[6] = system: RXF 393 renal
[7] = system: LOX IMVI melanoma
[8] = system: U251 CNS
[9] = system: SNB-75 CNS
[10] = system: OVCAR-3 ovarian
[11] = system: PC-3 prostate

Structure (SMILES): COc1ccc(Nc2[nH]c(C(C)=O)c(N)c2C(=S)Nc2ccccc2)cc1
- TGI [1]: > 100 µM
- TGI [2]: > 100 µM
- TGI [3]: 95.7 µM
- TGI [4]: > 100 µM
- TGI [5]: > 100 µM
- TGI [6]: 77.7 µM
- TGI [7]: > 100 µM
- TGI [8]: > 100 µM
- TGI [9]: > 100 µM
- TGI [10]: > 100 µM

Structure (SMILES): O=C1CC2C=CC(O)C(C1)C2 (stereo not drawn)
- TGI [1]: > 100 µM
- TGI [2]: > 100 µM
- TGI [3]: > 100 µM
- TGI [11]: > 100 µM
- TGI [4]: > 100 µM
- TGI [6]: 12.2 µM
- TGI [7]: > 100 µM
- TGI [8]: > 100 µM
- TGI [9]: > 100 µM
- TGI [10]: > 100 µM

Structure (SMILES): CCOC(=O)c1cc(=C2\CCN(CC(C)CC)C2=S)/c(=C(/O)CC)[nH]1 (stereo not drawn)
- TGI [1]: 30.9 µM
- TGI [2]: 31.4 µM
- TGI [3]: 30.8 µM
- TGI [11]: 38.8 µM
- TGI [4]: 34.4 µM
- TGI [6]: 44.9 µM
- TGI [7]: 41.2 µM
- TGI [8]: 26.5 µM
- TGI [9]: 36.9 µM

Structure (SMILES): O=C(NS(=O)(=O)Nc1ccc(Cl)cc1)OCc1ccc(Cl)cc1Cl
- TGI [1]: 76.9 µM
- TGI [2]: > 100 µM
- TGI [3]: 32.3 µM
- TGI [11]: > 100 µM
- TGI [4]: 42.7 µM
- TGI [5]: 39.1 µM
- TGI [7]: 57.3 µM
- TGI [8]: 66.7 µM
- TGI [9]: > 100 µM
- TGI [10]: 36 µM

Structure (SMILES): CC(C)=CCN1CC(C)C(=O)Nc2cc(Cl)ccc21 (stereo not drawn)
- TGI [1]: 83.9 µM
- TGI [2]: 36 µM
- TGI [11]: 47.5 µM
- TGI [4]: > 100 µM
- TGI [5]: 26.5 µM
- TGI [6]: > 100 µM
- TGI [7]: 32.4 µM
- TGI [8]: > 100 µM
- TGI [10]: 32.9 µM

Structure (SMILES): COc1ccc2c(c1)c1c(n2CCN2CCOCC2)-c2ccccc2CC1
- TGI [1]: > 100 µM
- TGI [2]: > 100 µM
- TGI [3]: > 100 µM
- TGI [11]: > 100 µM
- TGI [4]: > 100 µM
- TGI [5]: 46.3 µM
- TGI [6]: > 100 µM
- TGI [8]: > 100 µM
- TGI [9]: > 100 µM
- TGI [10]: > 100 µM

Structure (SMILES): CCOc1ccc(N/C(=C(/C(Cl)=C(/Cl)NCCN)[N+](=O)[O-])n2nnc3ccccc32)cc1
- TGI [1]: > 100 µM
- TGI [2]: > 100 µM
- TGI [3]: > 100 µM
- TGI [11]: > 100 µM
- TGI [4]: > 100 µM
- TGI [8]: > 100 µM
- TGI [9]: > 100 µM
- TGI [10]: 63.3 µM

Structure (SMILES): O=C(/C=C/c1ccccc1)/C=C/c1ccccc1O
- TGI [2]: 44.3 µM
- TGI [3]: 38.8 µM
- TGI [4]: 48.8 µM
- TGI [5]: 41.6 µM
- TGI [6]: 37.3 µM
- TGI [7]: 33.8 µM
- TGI [8]: 32.7 µM
- TGI [10]: 0.842 µM

Structure (SMILES): COc1cc(COC(=O)N[C@H](C(=O)O)C(C)(C)C)c([N+](=O)[O-])cc1OC
- TGI [2]: > 100 µM
- TGI [3]: > 100 µM
- TGI [11]: > 100 µM
- TGI [4]: > 100 µM
- TGI [5]: > 100 µM
- TGI [6]: > 100 µM
- TGI [8]: > 100 µM
- TGI [9]: > 100 µM
- TGI [10]: > 100 µM

Structure (SMILES): Clc1cc(N/N=C(/c2ccccc2)c2ncccn2)ncn1
- TGI [1]: 68 µM
- TGI [2]: 64.4 µM
- TGI [3]: > 100 µM
- TGI [11]: > 100 µM
- TGI [4]: 77.6 µM
- TGI [5]: > 100 µM
- TGI [6]: 41.4 µM
- TGI [8]: > 100 µM
- TGI [9]: 74.4 µM
- TGI [10]: 76 µM

Structure (SMILES): C[N+](C)(C)CC(=O)N/N=c1\cc(C(=O)Nc2ccc(N=O)cc2C#N)oc2cc(O)ccc12
- TGI [1]: > 100 µM
- TGI [2]: > 100 µM
- TGI [3]: > 100 µM
- TGI [4]: > 100 µM
- TGI [5]: > 100 µM
- TGI [6]: > 100 µM
- TGI [7]: > 100 µM
- TGI [8]: > 100 µM
- TGI [9]: > 100 µM
- TGI [10]: > 100 µM
